The record followed here is patent US7368576B2, “Dipeptidyl peptidase IV inhibitors and their uses as anti-cancer agents” (Probiodrug AG, priority 2001, dated 2008).

“And” between values parts separate entries of the source, which are not always exact repeats. Identical values can stand only once. “Also recorded” adds a separate entry of the source. Like-named read-outs stand apart in the source and are kept apart here. Square brackets hold non-standard residues; d marks the D form. Peptide text beside a SMILES is read from it. pY = N[C@@H](Cc1ccc(OP(=O)(O)O)cc1)C(=O)O; Hyp = O=C(O)[C@@H]1C[C@@H](O)CN1; Tic = O=C(O)[C@@H]1Cc2ccccc2CN1; Tle = CC(C)(C)[C@H](N)C(=O)O

One data set addresses T1, plasma DPIV activity (Rattus norvegicus, UniProt P14740).
T1 construct: determination of plasma DPIV activity consisted of 80 μl reagent and 20 μl plasma sample; from tissue; host or cells: plasma of Wistar rats after i.v. or p.o. dosing
Put plainly: DPIV inhibiting activity after intravasal and oral administration to Wistar rats. The data set is classed as in vivo. The note with it: 100 mg/kg; for In vivo DPIV-inhibition at tmax, i.v. (%): intra-vasal (intra-arterial); for In vivo DPIV-inhibition at tmax, p.o. (%): oral. The procedure:
Male Wistar rats (Shoe: Wist(Sho)) with a body weight ranging between 250 and 350 g were purchased from Tierzucht Schönwalde (Schönwalde, Germany).
After overnight fasting, 100 μl samples of heparinised arterial blood were collected at −30, −5, and 0 min. […] In the case of oral administration, an additional volume of 1 ml saline was injected into the arterial catheter. In the case of intra-arterial administration, the catheter was immediately flushed with 30 μl saline and an additional 1 ml of saline was given orally via the feeding tube.
All blood samples were collected into ice cooled Eppendorf tubes (Eppendorf-Netheler-Hinz, Hamburg, Germany) filled with 10 μl 1M sodium citrate buffer (pH 3.0) for plasma DPIV activity measurement. Eppendorf tubes were centrifuged immediately (12000 rpm for 2 min, Hettich Zentrifuge EBA 12, Tuttlingen; Germany): The plasma fractions were stored on ice until analysis or were frozen at −20° C. until analysis. All plasma samples were labelled with the following data: • Code number • Animal Number • Date of sampling • Time of sampling Analytical Methods
The assay mixture for determination of plasma DPIV activity consisted of 80 μl reagent and 20 μl plasma sample. […] The DPIV activity was expressed in mU/ml.

The target of data set [1] is T2, dipeptidyl peptidase IV from porcine kidney (Sus scrofa, UniProt P22411).
T2 construct: dipeptidyl peptidase IV from porcine kidney; from tissue; host or cells: porcine kidney
T2 sequence (P22411 whole entry): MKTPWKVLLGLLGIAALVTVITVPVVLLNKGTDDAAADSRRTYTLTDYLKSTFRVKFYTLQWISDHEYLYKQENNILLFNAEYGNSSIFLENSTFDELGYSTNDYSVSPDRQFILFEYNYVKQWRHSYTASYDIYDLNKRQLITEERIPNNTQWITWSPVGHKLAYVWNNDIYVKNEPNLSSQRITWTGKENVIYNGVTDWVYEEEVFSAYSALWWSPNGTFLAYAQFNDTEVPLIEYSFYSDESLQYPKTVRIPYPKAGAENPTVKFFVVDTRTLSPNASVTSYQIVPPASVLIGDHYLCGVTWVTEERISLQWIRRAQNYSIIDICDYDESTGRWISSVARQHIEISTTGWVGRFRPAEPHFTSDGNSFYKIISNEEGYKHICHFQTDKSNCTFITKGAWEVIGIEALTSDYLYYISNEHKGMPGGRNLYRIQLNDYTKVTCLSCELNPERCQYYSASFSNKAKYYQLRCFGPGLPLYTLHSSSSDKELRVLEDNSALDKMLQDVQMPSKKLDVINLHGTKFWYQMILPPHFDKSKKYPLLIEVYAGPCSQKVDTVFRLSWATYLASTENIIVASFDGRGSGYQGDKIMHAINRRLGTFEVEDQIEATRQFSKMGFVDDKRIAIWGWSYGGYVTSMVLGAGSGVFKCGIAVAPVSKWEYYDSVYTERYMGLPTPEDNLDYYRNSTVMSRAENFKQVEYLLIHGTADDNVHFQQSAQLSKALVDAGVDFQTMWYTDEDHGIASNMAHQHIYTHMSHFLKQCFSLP
The experiment in a line: Ki determination, DPIV inhibition (glycylprolyl-4-nitroaniline). The data set is classed as biochemical. The note with it: HEPES pH7.6, 30° C.

In data set [2] the target is T3, PepT1 (Oryctolagus cuniculus, UniProt P36836).
T3 construct: expressed in transfected cells; host or cells: Pichia pastoris cells expressing PepT1 (per the assay description)
T3 sequence (P36836 1-707): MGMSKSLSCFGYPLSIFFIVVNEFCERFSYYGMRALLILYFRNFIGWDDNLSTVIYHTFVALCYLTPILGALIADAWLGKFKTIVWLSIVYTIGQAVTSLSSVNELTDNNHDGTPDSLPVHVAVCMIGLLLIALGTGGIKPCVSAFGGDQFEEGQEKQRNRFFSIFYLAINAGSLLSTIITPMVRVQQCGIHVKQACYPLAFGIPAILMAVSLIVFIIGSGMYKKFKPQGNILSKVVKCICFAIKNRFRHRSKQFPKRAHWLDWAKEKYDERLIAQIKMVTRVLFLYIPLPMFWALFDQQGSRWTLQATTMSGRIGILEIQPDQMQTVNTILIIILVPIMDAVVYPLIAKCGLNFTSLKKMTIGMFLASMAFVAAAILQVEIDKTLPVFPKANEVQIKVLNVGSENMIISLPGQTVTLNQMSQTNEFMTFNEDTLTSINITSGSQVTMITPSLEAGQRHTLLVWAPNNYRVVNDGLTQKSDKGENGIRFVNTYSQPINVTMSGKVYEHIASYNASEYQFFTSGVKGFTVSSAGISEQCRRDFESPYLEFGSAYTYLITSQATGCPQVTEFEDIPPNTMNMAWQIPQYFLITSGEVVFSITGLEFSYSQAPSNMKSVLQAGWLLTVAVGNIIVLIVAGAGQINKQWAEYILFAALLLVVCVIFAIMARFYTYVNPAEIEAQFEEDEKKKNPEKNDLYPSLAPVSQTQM
Put plainly: Inhibition of 3H-D-Phe-Ala binding to PepT1-expressing P. pastoris cells. An excerpt:
(§1) Side chain-modified glutamyl thiazolidines having a structure H-Glu(X)-Thia were synthesised, with polyethylene glycol or glycine oligomers of various chain lengths being used as X (see Method A of example for description of synthesis). The binding characteristics of those derivatives and their transportability by the peptide transporter PepT1 were investigated.

Data set [3] concerns PepT1. The experiment in a line: Transport at PepT1-expressing oocytes of X. leavis, two-electrode voltage clamp. The format is cell-based.
Source text: as §1
(In general: Two-electrode voltage clamp holds a large cell at a set potential and records current.)

Another data set addresses purified porcine DPIV (Sus scrofa, UniProt P22411). Put plainly: Determination of IC50 values, DPIV (Gly-Pro-pNA). The format is biochemical. The note with it: Gly-Pro-pNA 0.4 mM, HEPES pH7.6, 30° C. The procedure: 100 μl inhibitor stock solution were mixed with 100 μl buffer (HEPES pH7.6) and 50 μl substrate (Gly-Pro-pNA, final concentration 0.4 mM) and preincubated at 30° C. Reaction was started by addition of 20 μl purified porcine DPIV. Formation of the product pNA was measured at 405 nm over 10 min using the HTS 7000Plus plate reader (Perkin Elmer) and slopes were calculated. The final inhibitor concentrations ranged between 1 mM and 30 nM. For calculation of IC50 GraFit 4.0.13 (Erithacus Software) was used.

In the next data set the test system is MADB106 tumor cells. The experiment in a line: In vivo cancer cell adhesion assay (CFSE labeled cells in lungs). Further details: species or system F344 rats. Conditions: wild-type F344USA rats, single injection i.v. + i.p., 30 min after inoculation, vs. saline; fumarate. The procedure:
Cell culture, injection of tumor cells, dissection of the animals and immunohistochemistry were conducted as previously described (von Hörsten et al., 2000). In brief, 1×10^6 MADB106 tumor cells derived from log phase of tumor growth were injected via the lateral tail vein and lungs removed at different time points thereafter. For in situ quantification of tumor cells at early time points after injection (30 min), cells were vital dye stained using the fluorescein derivate 5- (and -6)-carboxyfluorescein diacetate succinimidyl ester (CFSE) before injection.
Control sections were included in which one or both primary antibodies were omitted.
Vital dye (Carboxyfluorescein; CFSE) labeling of MADB106 tumor cells allows the quantification of tumor cells and NK cells in thick sections of lung tissue by stereology in situ (von Hörsten et al, 2000). In the present study we produced thin sections (8 μm) of the same lungs (n=10) and performed additional microscopic counting by image analysis of DE1 positive cells. This was done to further simplify the previously validated stereological quantification technique. Therefore, in the present study, the assessment of DE1 positive tumor cells in lung tissue from different substrains 30 min after tumor inoculation was carried out using image analysis approach. […] Each right upper lobe of the lungs was sectioned at 6 randomly chosen non-adjacent levels. From each level, three sections were evaluated.

One may read the Ki as the dissociation constant of the complex between target and ligand, obtained from inhibition or displacement. A higher Ki goes with lower affinity. One may read the IC50 as the concentration that gives 50% inhibition. A high value points to lower potency.

T1 sequence (P14740 37-767 limits assumed): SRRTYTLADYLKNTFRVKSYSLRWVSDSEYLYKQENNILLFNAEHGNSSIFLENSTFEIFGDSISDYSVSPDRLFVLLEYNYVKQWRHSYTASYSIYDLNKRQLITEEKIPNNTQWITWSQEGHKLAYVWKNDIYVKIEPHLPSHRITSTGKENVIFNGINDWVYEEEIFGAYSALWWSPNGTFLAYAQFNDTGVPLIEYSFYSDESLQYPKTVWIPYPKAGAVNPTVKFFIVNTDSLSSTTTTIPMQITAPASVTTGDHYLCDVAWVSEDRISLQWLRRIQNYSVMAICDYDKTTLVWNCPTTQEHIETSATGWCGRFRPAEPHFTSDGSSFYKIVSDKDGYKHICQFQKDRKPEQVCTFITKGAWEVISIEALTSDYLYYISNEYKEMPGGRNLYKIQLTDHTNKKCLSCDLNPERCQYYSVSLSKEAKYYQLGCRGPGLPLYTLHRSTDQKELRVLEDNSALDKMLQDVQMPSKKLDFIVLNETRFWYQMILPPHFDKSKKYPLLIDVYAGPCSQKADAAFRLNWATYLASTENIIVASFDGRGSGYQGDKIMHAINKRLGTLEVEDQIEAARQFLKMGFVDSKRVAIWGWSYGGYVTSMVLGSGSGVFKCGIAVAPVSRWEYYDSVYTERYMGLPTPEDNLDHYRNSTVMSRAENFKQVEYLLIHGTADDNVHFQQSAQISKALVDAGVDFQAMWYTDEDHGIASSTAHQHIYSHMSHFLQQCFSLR
Sequence of purified porcine DPIV (P22411 whole entry): as the sequence (P22411 whole entry) above

Take `Br.CC(=O)OCC(=O)[C@@H]1CCCN1C(=O)[C@@H](NC(=O)[C@H](C)N)C(C)C` [Ala-Val-Pro-acyloxy methyl ketone, H-Ala-Val-Pro-CH2O—C(O)CH3.HBr]: on plasma DPIV activity, the “In vivo DPIV-inhibition at tmax, i.v. (%)” value was 89% and the “In vivo DPIV-inhibition at tmax, p.o. (%)” value amounted to 86%.
On the same counts, the results for `Br.CC(C)[C@H](NC(=O)[C@H](C)N)C(=O)N1CCC[C@H]1C(=O)COC(=O)c1ccccc1` [Ala-Val-Pro-benzoyl-methyl ketone, H-Ala-Val-Pro-CH2O—C(O)Ph.HBr] are 97% and 76%.
`NC(=O)CC(N)C(=O)N1CCCC1` (stereo not drawn) [H-Asn-pyrrolidine]: the Ki in data set [1] was determined as 12 µM.
Same read-out and setting: the result for `NC(=O)CC(N)C(=O)N1CCSC1` (stereo not drawn) [H-Asn-thiazolidine] reads 3.5 µM; that for `NC(CC(=O)NO)C(=O)N1CCCC1` (stereo not drawn) [H-Asp(NHOH)-pyrrolidine], 13 µM; that for `NC(CC(=O)NO)C(=O)N1CCSC1` (stereo not drawn) [H-Asp(NHOH)-thiazolidine], 8.8 µM.
The same measure, in the same setting: the result for `NC(CC(=O)O)C(=O)N1CCCC1` (stereo not drawn) [H-Asp-pyrrolidine] reads 0.014 µM.
In the case of `NC(CC(=O)O)C(=O)N1CCSC1` (stereo not drawn) [H-Asp-thiazolidine], in data set [1], the Ki stood at 2.9 µM.
Consider `N[C@@H](CCC(=O)NCC(=O)NCC(=O)NCC(=O)O)C(=O)N1CCSC1` [H-Glu(Gly3)-Thia], for which the Ki in data set [1] worked out at 0.0192 µM. The EC50 on PepT1 [2] was found to be 8540 µM.
The corresponding values for `N[C@@H](CCC(=O)NCC(=O)NCC(=O)NCC(=O)NCC(=O)NCC(=O)O)C(=O)N1CCSC1` [H-Glu(Gly5)-Thia] are 0.0993 µM and > 10000 µM.
The molecule `NC(CCC(=O)NO)C(=O)N1CCCC1` (stereo not drawn) [H-Glu(NHOH)-pyrrolidine] gave a Ki in data set [1] of 2.8 µM.
For `NC(CCC(=O)NO)C(=O)N1CCSC1` (stereo not drawn) [H-Glu(NHOH)-thiazolidine], in data set [1], the affinity corresponds to a Ki of 1.7 µM. Also, the “Imax, inward currents generated by the transport” value (shortened to “Imax, inward currents generated”) with PepT1 [3] is 42 ± 11 nA. At PepT1 [2], the EC50 amounted to 3180 µM.
Regarding `N[C@@H](CCC(=O)O)C(=O)N1CCSC1` [H-Glu-thiazolidine], the Ki in data set [1] was 0.62 µM and 0.61 µM. Besides, in the data set on PepT1 [3], the “Imax, inward currents generated” value amounted to 35 ± 13 nA. This molecule displayed an EC50 at PepT1 [2] of 1100 µM.
For `NC(Cc1c[nH]cn1)C(=O)N1CCCC1` (stereo not drawn) [H-His-pyrrolidine], the Ki in data set [1] is 3.5 µM.
In data set [1], `NC(Cc1c[nH]cn1)C(=O)N1CCSC1` (stereo not drawn) [H-His-thiazolidine] showed a Ki of 1.8 µM.
In the case of `CCC(C)C(N)C(=O)N1CCSC1` (stereo not drawn) [H-Ile-Thia], the “Imax, inward currents generated” value in the data set on PepT1 [3] was 25 ± 8 nA. This molecule displayed an EC50 at PepT1 [2] of 980 µM.
Take `CCC(C)C(N)C(=O)N1CC1` (stereo not drawn) [H-Ile-azididine]: the affinity in data set [1] corresponds to a Ki of 3.1 µM.
`CC(C)C(N)C(=O)N1CCSC1` (stereo not drawn) [H-Val-thiazolidine] yielded a Ki in data set [1] of 0.27 µM.
The molecule `CC[C@H](C)[C@H](N)C(=O)N1C[C@H](O)C[C@H]1C(=O)N[C@H](C(=O)O)[C@@H](C)CC` [Ile-Hyp-Ile] (H-Ile-[Hyp]-Ile-OH; N-terminus and C-terminus assumed) registered an IC50 at purified porcine DPIV of 6000 µM. In other words, the millimolar range.
`CCC(C)C(N)C(=O)C1CCCCC1` (stereo not drawn) [Ile-cyclohexyl ketone] came in with a Ki in data set [1] of 56.8 µM. In addition, the IC50 at purified porcine DPIV came out at 293 µM.
Turning to `CCC(C)C(N)C(=O)C1CCCC1` (stereo not drawn) [Ile-cyclopentyl ketone, 1-cyclopentyl-3-methyl-1-oxo-2-pentanaminium chloride], it took 38.2 µM to reach half-maximal inhibition on purified porcine DPIV (IC50).
For the molecule `CC[C@H](C)[C@H](NC(=O)[C@@H]1CCCN1C(=O)[C@@H]1Cc2ccccc2CN1)C(=O)O` [Tic-Pro-Ile] (H-[Tic]-Pro-Ile-OH; N-terminus and C-terminus assumed), on purified porcine DPIV, the IC50 is 1000 µM.
Consider `CC[C@H](C)[C@H](NC(=O)[C@@H]1CCCN1C(=O)[C@@H](N)Cc1ccc(OP(=O)(O)O)cc1)C(=O)O` [Tyr(P)-Pro-Ile] (H-[pY]-Pro-Ile-OH; N-terminus and C-terminus assumed), for which the “In vivo DPIV-inhibition at tmax, p.o. (%)” value on plasma DPIV activity is reported as “no inhibition”. The molecule further showed an IC50 against purified porcine DPIV of 2000 µM.
Turning to `CC(=O)C1CCCN1C(=O)C(N)C(C)C` (stereo not drawn) [Val-Pro-methyl ketone], in data set [1], the affinity corresponds to a Ki of 0.0476 µM. On purified porcine DPIV, half-maximal inhibition (IC50) was put at 0.579 µM.
Regarding `CC(C)[C@H](N)C(=O)N1CCC[C@H]1C(=O)N[C@H](C(=O)O)C(C)(C)C` [Val-Pro-t-butyl-Gly] (H-Val-Pro-[Tle]-OH; N-terminus and C-terminus assumed), inhibition at purified porcine DPIV was half-maximal at 67.5 µM (IC50).
In data set [1], `CC(C)C(N)C(=O)C1CCCC1` (stereo not drawn) [Val-cyclopentyl ketone] registered a Ki of 13.1 µM. In addition, the IC50 on purified porcine DPIV came out at 49 µM.
For the molecule `CC(C)(C)C(N)C(=O)C1CCCCC1` (stereo not drawn) [t-butyl-Gly-cyclohexyl ketone], the affinity in data set [1], expressed as Ki, was 273 µM. In addition, it took 273 µM to reach half-maximal inhibition against purified porcine DPIV (IC50).
As for `CC(C)[C@H](N)C(=O)N1CCCC1.O=C(O)/C=C/C(=O)O` [valyl pyrrolidine fumarate], the “tumor cell adhesion, CFSE positive cells in lung tissue” value with MADB106 tumor cells is “no significant effect; also recorded: significant differences vs. saline treated controls were not found”.
In turn, H-Glu(PEG)-Thia displayed a Ki in data set [1] of 3.11 µM. The EC50 on PepT1 [2] (read-out: EC50, concentration inhibiting binding of 3H-D-Phe-Ala to PepT1-expressing P. pastoris cells by 50%) is > 10000 µM.
Val-Pro-acyloxy methyl ketone: the Ki in data set [1] was found to be 0.00105 µM. The molecule also registered an IC50 against purified porcine DPIV of 0.0102 µM.
In turn, Val-Pro-benzothiazol methyl ketone returned a Ki in data set [1] of 0.0373 µM. This molecule returned an IC50 on purified porcine DPIV of 0.138 µM.
On the same counts, the results for Val-Pro-benzoyl methyl ketone are 0.000536 µM and 0.0179 µM.
Val-cyclohexyl ketone came in with an IC50 at purified porcine DPIV of 1000 µM.
